# Results taken from patent publication US20250162989A1, “USP30 INHIBITORS AND USES THEREOF” (Vincere Biosciences, Inc., priority 2021, published 2025).
# Target: recombinant USP30 (amino acids 57-517 of the human sequence) (Homo sapiens (Human), UniProt Q70CQ3)
# Assay: In vitro USP30 biochemical assay (Ubiquitin-Rhodamine substrate)
# Conditions: 1.5 nM recombinant USP30, 25 nM Ubiquitin-Rhodamine, fluorescence
# Procedure: In vitro biochemical assay to establish the potency of compounds for USP30 inhibition: a 384-well plate assay using a fluorophore tagged substrate of USP30 was used for in vitro screening of compounds. Each compound was tested at
# 10 different concentrations (0.5 to 10,000 nM) in duplicate wells. […] Data were analyzed using Graph Pad Prism software with a four-parameter (floating slope) fit to log concentration data to determine IC50s.
# Chain of recombinant USP30 (amino acids 57-517 of the human sequence) (Q70CQ3 57-517): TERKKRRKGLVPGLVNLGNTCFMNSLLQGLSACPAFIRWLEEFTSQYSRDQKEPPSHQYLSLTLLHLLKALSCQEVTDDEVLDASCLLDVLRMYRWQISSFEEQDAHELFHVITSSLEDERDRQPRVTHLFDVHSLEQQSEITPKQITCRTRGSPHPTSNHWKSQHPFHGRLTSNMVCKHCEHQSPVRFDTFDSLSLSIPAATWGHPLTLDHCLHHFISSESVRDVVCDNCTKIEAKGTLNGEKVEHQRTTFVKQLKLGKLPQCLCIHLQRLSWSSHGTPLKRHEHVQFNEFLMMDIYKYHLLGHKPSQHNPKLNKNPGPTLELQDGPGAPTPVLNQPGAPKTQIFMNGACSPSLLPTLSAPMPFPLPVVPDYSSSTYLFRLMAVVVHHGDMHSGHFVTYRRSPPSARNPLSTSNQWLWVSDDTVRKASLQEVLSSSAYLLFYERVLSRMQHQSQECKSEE
row,SMILES,IC50 [µM]
1,CC(C)(C)NS(=O)(=O)c1ccc(NC(=O)[C@H](Cc2ccccc2)NC(=O)N2CCOCC2)cc1 [Compound I-184],1 to 10
2,CC(C)(C)NS(=O)(=O)c1ccc(NC(=O)[C@H](Cc2ccccc2)NC(=O)c2cncnc2)cc1 [Compound I-188],0.05 to 1
3,CC(C)(C)NS(=O)(=O)c1ccc(NC(=O)[C@H](Cc2ccccc2)NC(=O)c2ccc3nn[nH]c3c2)cc1 [Compound I-189],0.05 to 1
4,CC(C)(C)NS(=O)(=O)c1ccc(NC(=O)[C@H](Cc2ccccc2)NC(=O)c2ccc3cn[nH]c3c2)cc1 [Compound I-190],1 to 10
5,CC(C)(C)NS(=O)(=O)c1ccc(NC(=O)[C@H](Cc2ccccc2)NC(=O)C2CCNCC2)cc1 [Compound I-192],1 to 10
6,CC(C)(C)NS(=O)(=O)c1ccc(NC(=O)[C@H](Cc2ccccc2)NC(=O)c2ccc3nc[nH]c3c2)cc1 [Compound I-194],1 to 10
7,CC(C)(C)NS(=O)(=O)c1cccc2c(NC(=O)[C@H](Cc3ccccc3)NC(=O)N3CCOCC3)cccc12 [Compound I-195],0.05 to 1
8,CC(C)(C)NS(=O)(=O)c1cccc2c(NC(=O)[C@H](Cc3ccccc3)NC(=O)N3CC4(COC4)C3)cccc12 [Compound I-197],0.05 to 1
9,CC(C)C[C@H](NC(=O)c1ccc(F)cc1)C(=O)Nc1ccc(S(=O)(=O)NC(C)(C)C(F)(F)F)nc1 [Compound I-203],0.05 to 1
10,CC(C)C[C@H](NC(=O)c1ccc(F)cn1)C(=O)Nc1ccc(S(=O)(=O)NC(C)(C)C(F)(F)F)cc1 [Compound I-204],0.05 to 1
11,CC(C)[C@H](NC(=O)c1ccc(F)cc1)C(=O)Nc1ccc(S(=O)(=O)NC(C)(C)C)cc1 [Compound I-206],0.05 to 1
12,CC(C)(NS(=O)(=O)c1ccc(NC(=O)[C@H](CC2CCOCC2)NC(=O)c2ccc(F)cn2)cc1)C(F)(F)F [Compound I-207],0.05 to 1
13,CC(C)C[C@H](NC(=O)c1ccc(F)cn1)C(=O)Nc1ccc(S(=O)(=O)NC(C)(C)C(F)(F)F)nc1 [Compound I-210],0.05 to 1
14,CC(C)(NS(=O)(=O)c1ccc(NC(=O)[C@H](Cc2ccccn2)NC(=O)c2ccc(F)cc2)cc1)C(F)(F)F [Compound I-212],0.05 to 1
15,CC(C)(CF)NS(=O)(=O)c1ccc(NC(=O)[C@H](Cc2ccccn2)NC(=O)c2ccc(F)cc2)cc1 [Compound I-213],0.05 to 1
16,CC(C)(C)NS(=O)(=O)c1ccc(NC(=O)[C@H](CC2CCN(C(=O)OCc3ccccc3)CC2)NC(=O)N2CCOCC2)cc1 [Compound I-214],0.05 to 1
17,CC(C)(C)NS(=O)(=O)c1ccc(NC(=O)[C@H](CC2CCNCC2)NC(=O)N2CCOCC2)cc1 [Compound I-215],1 to 10
18,CC(C)C[C@H](NC(=O)N1CCOCC1)C(=O)Nc1cccc2c(S(=O)(=O)NC(C)(C)C)cccc12 [Compound I-216],1 to 10
19,CN1CCC(C[C@H](NC(=O)N2CCOCC2)C(=O)Nc2ccc(S(=O)(=O)NC(C)(C)C)cc2)CC1 [Compound I-217],1 to 10

# Same assay, conditions: […] recombinant USP30, 25 nM Ubiquitin-Rhodamine, fluorescence
row,SMILES,IC50 [µM]
1,CC(C)(C)NS(=O)(=O)c1cccc2c(NC(=O)[C@H](Cc3ccccc3)NC(=O)C3CCNCC3)cccc12 [Compound I-187],> 10
2,CC(C)(C)NS(=O)(=O)c1ccc(NC(=O)[C@H](Cc2ccccc2)NC(=O)c2ncccn2)cc1 [Compound I-191],> 10
3,CN1CCN(C(=O)N[C@@H](Cc2ccccc2)C(=O)Nc2cccc3c(S(=O)(=O)NC(C)(C)C)cccc23)CC1 [Compound I-198],> 10
4,CC(C)(C)NS(=O)(=O)c1cccc2c(NC[C@H](O)[C@H](Cc3ccccc3)NC(=O)c3ccc(F)cc3)cccc12 [Compound I-211],> 10
5,CN1CCC(C[C@H](NC(=O)N2CCN(C)CC2)C(=O)Nc2ccc(S(=O)(=O)NC(C)(C)C)cc2)CC1 [Compound I-218],> 10
6,CN1CCN(C(=O)N[C@@H](CC2CCNCC2)C(=O)Nc2ccc(S(=O)(=O)NC(C)(C)C)cc2)CC1 [Compound I-219],> 10
7,CC(C)C[C@H](NC(=O)c1ccc(F)cc1)[C@@H](O)CNc1ccc(S(=O)(=O)NC(C)(C)C)cc1 [Compound I-220],> 10
